Results as given in article PMC7562719, “Discovery of a CNS penetrant small molecule SMN2 splicing modulator with improved tolerability for spinal muscular atrophy” (Scientific Reports, 2020).
Marks after values point to notes of the source that are not given here.

Columns and labels:
TK6 cells = conditions: positive control 6 µg/mL (21 µM), 3 h + S9 mix
Protocol: These articles have been recommended for use in the OECD test guideline (Test No. 487)[49]. For metabolic activation, pre-cultured TK6 cells with the culture medium were supplemented with Sprague–Dawley rat liver mix (S9 mix, IEDA TRADING CORPORATION, Japan) at 3.33 vol%. Then, compound was mixed with the cell suspension and treated under the following treatment conditions: • Short-term treatment for 3 h without S9 mix, followed by a 21-h culture (−S9 mix assay), • Short-term treatment for 3 h with S9 mix, followed by a 21-h culture (+S9 mix assay), or • Continuous treatment for 24 h without S9 mix (24-h assay). For treatment conditions 1 and 2, the cells in each well were centrifuged after the 3-h treatment, the supernatants were discarded, and the cells were washed twice with culture medium. The cells were further cultured with fresh culture medium for 21 h. The compound-treated cells were examined by the unaided eye for precipitation of compound at the start and end of treatment. After treatment, the rest of each cell suspension was centrifuged and then the cells were suspended in a 0.075 mol/L KCl solution at room temperature for 10 min. Then, 25 vol% acetic acid containing methanol was added and the centrifuged cells were fixed. The fixed cells were resuspended in a small amount of 3 vol% acetic acid containing methanol, which was changed two times by centrifugation. Finally, a drop of the cell suspension was transferred onto a slide and dried at room temperature. The slides were stained at room temperature in a 3 vol% Giemsa solution (Merck KGaA) diluted with Sörensen phosphate buffer (1/15 mol/L, pH 6.8, Muto Pure Chemicals Co. Ltd.). Four slides per dose (2 slides per well) were prepared. Each slide was coded randomly. The test was conducted at the following doses of TEC-1. -S9 mix assay: 1.5, 1.7, 1.9, 2.1, 2.3, 2.5, 2.7, 2.9, and 3.1 µg/mL, + S9 mix assay: 1.9, 2.1, 2.3, 2.5, 2.7, 2.9, 3.1, 3.3, and 3.5 µg/mL, 24-h assay: 0.9, 1.1, 1.3, 1.5, 1.7, 1.9, 2.1, 2.3, and 2.5 µg/mL. To perform scoring for compound and negative control groups, the number of cells in the suspensions was counted using a Coulter Counter (Z2; Beckman Coulter, Inc.). The positive control groups were not determined. A portion (0.5 mL) of the cell suspension was diluted with 20 mL of Isoton II, and 0.5 mL of this solution was used for cell counts. The cell number per 1 mL at each culture was calculated by the following formula. Cellnumber/mL=Dilutionfactor×valueof1stcount+valueof2ndcount/2×2
The population doubling (PD) and relative population doubling (RPD) at each concentration was calculated by the following formula. PD=log10cell number at the end of culture/cell number at the start of treatment∗/log102∗:1×10^5cells/mL.
RPD%=PD of the compound-treated group/PD of the negative control group×100 For the treated groups, the 3 consecutive concentrations were selected as follows. […] For all concentrations, 4000 mononuclear cells with cytoplasm were analyzed and the number of cells with micronucleus (micronuclei) was counted using a microscope (× 600). Micronucleus is identified as a round or oval small nucleus in the cytoplasm with the same staining intensity as the main nucleus. The diameter of each micronucleus should be less than 1/2 of the diameter of the main nucleus. Two investigators observed the slides. Each investigator scored 1000 cells for the frequency of micronucleated cells. Data from the two investigators were combined for each culture and the combined data from duplicate cultures were pooled for each concentration for each treatment condition. A cell having one or more micronuclei was recorded as a micronucleated cell.

FL-SMN2 mRNA = test: qPCR of FL-SMN2 transcripts in SMA type II fibroblasts (GM03813); type: cell-based, human; conditions: 24 h, 50% total FL-SMN2 mRNA increase, normalized to GAPDH, 95% CI in brackets
Protocol: (§1) GM03813 fibroblasts, GM24468-derived MNs, NRK-49F, MDCK, CV-1, or NCMDF cells were plated at a density of 0.5 or 1.5 × 10^4, 4 × 10^4, 5 × 10^3, 5 × 10^3, 8 × 10^3, or 6 × 10^3 cells/well on 96-well plates, respectively. After approximately 6 h, the medium was added with the same volume of culture medium containing each compound at the concentration of 0.06, 0.2, 0.6, 0.2, and 6 µM. The final concentration of DMSO was adjusted to 0.1% in culture condition.
(§2) All cells were treated with above compounds for 24 h and washed once with Dulbecco’s Phosphate-Buffered Saline without Ca and Mg [D-PBS (–)] (Wako or Nakarai Tesque). In case of using GM03813 or GM24468-derived MNs, cell lysis and reverse transcription were carried out using SuperPrep Cell Lysis & RT Kit for qPCR in accordance with manufacturer’s recommendations (Toyobo, Japan). qPCR was performed using THUNDERBIRD Probe qPCR Mix (Toyobo). The final concentrations of primers and probes were adjusted to 0.4 µM and 0.15 µM, respectively (Supplementary Table 1). Cycle conditions were as follows; 95 °C for 1 min; followed by 40 cycles of denaturation at 95 °C for 15 s; annealing and elongation at 60 °C for 1 min in the ViiA7 RT-PCR system (Thermo Fisher Scientific). The copy numbers of each target were normalized to those of GAPDH.

FOXM1b = test: qPCR of FOXM1b/c variant in GM03813 fibroblasts; type: cell-based, human
Protocol: as §1, §2

FOXM1ΔC = test: qPCR of FOXM1ΔC variant in GM03813 fibroblasts; type: cell-based, human; conditions: 24 h, 300% total target mRNA increase, 95% CI in brackets
Protocol: as §1, §2

FOXM1a = test: qPCR of FOXM1a variant in GM03813 fibroblasts; type: cell-based, human; conditions: 24 h, 200% total target mRNA increase, 95% CI in brackets
Protocol: as §1, §2

FOXM1 = test: qPCR of FOXM1 transcripts in cynomolgus monkey fibroblasts (NCMDF); type: cell-based; conditions: 24 h
Protocol: as §1
In the instances of using NRK-49F, MDCK, CV-1 or NCMDF, cell lysis and reverse transcription were carried out using Custom Cells to CT Lysis Components (Ambion) and Cells-to-CT RT Components (Ambion), each in accordance with manufacturer’s recommendations. qPCR was conducted using TaqMan Fast Advanced Master Mix. The final concentrations of primers and probes were adjusted to 0.4 µM and 0.15 µM, respectively. Cycle conditions were as follows; 50 °C for 2 min and 95 °C for 2 s; followed by 40 cycles of denaturation at 95 °C for 1 s; annealing and elongation at 60 °C for 20 s in the ABI7900HT RT-PCR system (Applied Biosystems, USA). The relative quantification in gene expression was determined using the 2−ΔΔCt method.

[1] = parameters: method as in PMID 30044619; conditions: in vitro and in vivo; cited from earlier work
[2] = parameters: method as in PMID 30302786; conditions: Phase I clinical trial, 18 mg/individual; cited from earlier work
cynomolgus monkeys = conditions: cynomolgus monkey, in vivo; cited from earlier work

Compound | Micronucleated cells Well 1 (TK6 cells) | Micronucleated cells Well 2 (TK6 cells) | Micronucleated cells Total (TK6 cells; counted in 4000 cells) | Micronucleated cells (%) (TK6 cells; p < 0.01) | EC1.5× FL-SMN2 (FL-SMN2 mRNA) | Selectivity FOXM1b /FL-SMN2 (FOXM1b; EC50 of FOXM1b divided by EC1.5× of FL-SMN2) | EC50 (FOXM1b; Homo sapiens, Fibroblast, GM03813 fibroblasts, 24 h, 50% total target mRNA reduction, 95% CI in brackets) [nM] | EC4.0× FOXM1ΔC (FOXM1ΔC) | EC3.0× FOXM1a (FOXM1a) | FOXM1 splicing in cynomolgus monkey cells (FOXM1) | micronucleus induction [1] | exposure cap, AUC0–24h in plasma [2] [ng·h/mL] | findings in 39-week toxicological study (cynomolgus monkeys)
O=P1(N(CCCl)CCCl)NCCCO1 (stereo not shown) [CP, cyclophosphamide, reference compound] | 39 | 46 | 85 | (2.13) ** % |  |  |  |  |  |  |  |  | 
Cc1cn2nc(-c3cc(=O)n4cc(N5CCNC6(CC6)C5)ccc4n3)cc(C)c2n1 [Risdiplam] |  |  |  |  | 15.8 (8.81–32.8) nM | 8 | 124 | 38.9 (6.98–85.0) nM | 24.2 (4.49–78.5) nM | FOXM1 mis-splicing was similarly observed | induces micronucleation in vitro and in vivo | 1500 | pathological intestinal and pancreatic changes, and irreversible retinal degeneration
